{
  "source": "ChEMBL document CHEMBL1201862",
  "about": "“PubChem BioAssay data set” (2004)",
  "key": {"[1]": {"experiment": "DRD fibroblast viability loss – cell-based, non-viral oncogenic, luminescence, dose response (AID 1934)", "type": "functional", "conditions": "Homo sapiens"}, "[2]": {"system": "BJ", "experiment": "growth inhibition of engineered Ras-driven BJ cells – cell-based, alamar blue fluorescence, cherrypicked samples, dose response (AID 2631)", "type": "functional", "conditions": "Homo sapiens"}, "[3]": {"experiment": "viability of uninfected HEp-2 cells – cell-based, HTS, cytotoxicity control for RSV inhibitor project, dose response (AID 2410)", "type": "functional", "conditions": "human respiratory syncytial virus"}, "[4]": {"system": "BJ", "experiment": "BJ-TERT fibroblast viability loss – cell-based, RAS-independent, luminescence, dose response (AID 1933)", "type": "functional", "conditions": "Homo sapiens"}, "[5]": {"system": "BJ", "experiment": "cells", "type": "functional, cell-based", "conditions": "Homo sapiens"}, "[6]": {"biological_target": "Adenosylmethionine-8-amino-7-oxononanoate aminotransferase (Mycobacterium tuberculosis, UniProt P9WQ81)", "sequence (P9WQ81 whole entry)": "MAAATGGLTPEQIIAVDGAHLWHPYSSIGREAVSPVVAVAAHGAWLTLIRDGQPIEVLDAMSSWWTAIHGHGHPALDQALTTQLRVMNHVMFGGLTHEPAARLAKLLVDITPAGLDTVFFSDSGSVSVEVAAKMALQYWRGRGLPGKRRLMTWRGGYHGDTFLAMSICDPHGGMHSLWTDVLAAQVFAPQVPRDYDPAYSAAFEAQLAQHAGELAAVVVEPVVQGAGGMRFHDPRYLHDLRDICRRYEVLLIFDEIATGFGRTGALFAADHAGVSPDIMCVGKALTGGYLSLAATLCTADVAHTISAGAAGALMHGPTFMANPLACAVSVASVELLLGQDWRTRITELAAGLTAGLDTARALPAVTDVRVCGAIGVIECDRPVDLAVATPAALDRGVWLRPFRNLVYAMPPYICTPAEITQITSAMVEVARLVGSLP", "experiment": "Mycobacterium tuberculosis BioA enzyme inhibitor Measured in Biochemical System Using Plate Reader - 2163-02_Inhibitor_Dose_CherryPick_Activity.", "type": "functional, Mycobacterium tuberculosis UT205"}, "[7]": {"experiment": "bead-based luminescence quenchers, dual-tagged ARNT – biochemical, AlphaScreen, cherry-pick, artefact control for ARNT-TACC3 interaction inhibitor project, dose response (AID 651705);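 note: AlphaScreen bead proximity signal that flags compounds interfering with the detection technology; potency reflects signal decrease which marks the compound as an assay artifact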", "type": "functional"}, "[8]": {"biological_target": "Nonstructural protein 1 (Influenza A virus, UniProt Q194T2)", "sequence (Q194T2 whole entry)": "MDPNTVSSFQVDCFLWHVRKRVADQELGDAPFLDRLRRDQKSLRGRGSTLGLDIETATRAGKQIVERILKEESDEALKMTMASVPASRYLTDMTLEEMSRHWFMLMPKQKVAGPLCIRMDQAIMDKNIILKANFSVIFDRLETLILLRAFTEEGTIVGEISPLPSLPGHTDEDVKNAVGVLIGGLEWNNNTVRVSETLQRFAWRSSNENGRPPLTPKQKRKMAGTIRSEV", "type": "functional, Influenza A virus (A/California/07/2009(H1N1))"}, "[9]": {"biological_target": "Protein Wnt-3a (Mus musculus, UniProt P27467)", "sequence (P27467 whole entry)": "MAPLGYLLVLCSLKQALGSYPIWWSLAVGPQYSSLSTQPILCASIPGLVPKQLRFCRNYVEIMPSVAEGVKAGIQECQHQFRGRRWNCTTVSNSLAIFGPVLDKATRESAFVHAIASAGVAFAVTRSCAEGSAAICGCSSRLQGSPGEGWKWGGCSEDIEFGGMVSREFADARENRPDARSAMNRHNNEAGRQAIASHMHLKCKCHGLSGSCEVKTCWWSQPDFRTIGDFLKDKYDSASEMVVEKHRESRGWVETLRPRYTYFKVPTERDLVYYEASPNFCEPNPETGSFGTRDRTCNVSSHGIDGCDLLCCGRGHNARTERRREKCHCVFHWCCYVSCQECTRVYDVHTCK", "experiment": "antagonism of Wnt3a pathway luciferase reporter – Wnt-LIGHT cells, luminescence, selectivity assay for Gli-SUFU antagonist project, dose response (AID 651570);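 note: Wnt-LIGHT reporter cells stimulated with conditioned medium from Wnt3a-producing cells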", "type": "functional", "conditions": "read-out: IC50_Mean"}, "[10]": {"experiment": "loss of viability in HepG2 cells – cell-based, CellTiter-Glo, cherry-picked, cytotoxicity control for Shn3 inhibitor project, dose response (AID 624134)", "type": "functional"}, "[11]": {"experiment": "non-specific 3'UTR reporter inhibition in Clone20-Shn3RL – cell-based, Renilla luciferase, cherry-picked, counter-screen for Shn3 inhibitor project, dose response (AID 624133)", "type": "functional"}, "[12]": {"experiment": "reduction of Shn3 3'UTR-driven luciferase in osteoblasts – cell-based, Clone20 osteoblasts, firefly luciferase, cherry-picked, dose response (AID 624132)", "type": "functional"}, "[13]": {"system": "HEK293", "experiment": "NOD2 signaling inhibitors in MDP-stimulated cells, cell-based, uHTS, luminescence (AID 2001)", "type": "functional", "conditions": "Homo sapiens"}, "[14]": {"system": "HEK293", "experiment": "inhibition of NOD1-driven NF-kB reporter – cell-based, luminescence, uHTS, primary screen (AID 1578)", "type": "functional", "conditions": "Homo sapiens"}, "[15]": {"system": "HEK293", "experiment": "cells", "type": "functional, cell-based", "conditions": "Homo sapiens"}, "[16]": {"system": "HEK293", "experiment": "cells", "type": "functional, cell-based", "conditions": "Homo sapiens", "remark": "listed apart in the source"}, "[17]": {"system": "BJ", "experiment": "BJ-TERT-LT-ST fibroblast viability loss – cell-based, RAS-independent, luminescence, dose response (AID 1935);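 note: BJ fibroblasts immortalized with TERT plus LT and ST oncogenes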", "type": "functional", "conditions": "Homo sapiens"}},
  "note": "Active and inactive are the calls of the source.",
  "data": [
    {"molecule": "C[C@@H]1C[C@H]2OC(=O)C3(CO3)[C@H]2[C@H](O)[C@]2(C)C(=O)C3OC3[C@@H]12", "note": "(some centres not stated)", "values": [
      {"measurement": "EC50", "setting": "[1]", "value": "14.2 µM (active)"},
      {"measurement": "EC50", "setting": "[2]", "value": "> 133 µM (inactive)"},
      {"measurement": "CC50", "setting": "[3]", "value": "15.9 µM (active)"},
      {"measurement": "EC50", "setting": "[4]", "value": "17 µM (active)"},
      {"measurement": "EC50", "setting": "[5]", "value": "14.3 µM (active)"}
    ]},
    {"molecule": "O=C1CCCc2c1cc(C(=O)NCc1ccco1)c(=O)n2-c1ccc(Cl)cc1", "values": [
      {"measurement": "AC50", "setting": "[6]", "value": "3.08 µM (active)"}
    ]},
    {"molecule": "Cc1ccc(-n2ncc3c2CC(C)(C)CC3NC(=O)CCc2cccnc2)cc1", "note": "(configuration not stated)", "values": [
      {"measurement": "AC50", "setting": "[6]", "value": "9.11 µM (active)"}
    ]},
    {"molecule": "NC(=NOC(=O)Cc1ccc([N+](=O)[O-])cc1)c1ccccn1", "values": [
      {"measurement": "AC50", "setting": "[7]", "value": "78.8 µM (active)"},
      {"measurement": "IC50", "setting": "[8]", "value": "32.1 µM (active)"}
    ]},
    {"molecule": "CC(Sc1nc2ccccc2c(=O)n1C)C(=O)NC1CCCCC1C", "note": "(configuration not stated)", "values": [
      {"measurement": "IC50", "setting": "[9]", "value": "4.15 µM (active)"},
      {"measurement": "AC50", "setting": "[10]", "value": "26.2 µM (active)"},
      {"measurement": "AC50", "setting": "[11]", "value": "3.78 µM (active)"},
      {"measurement": "AC50", "setting": "[12]", "value": "3.46 µM (active)"}
    ]},
    {"molecule": "Cc1ccc(Nc2nc(N)nc(CCl)n2)c(C)c1", "values": [
      {"measurement": "IC50", "setting": "[13]", "value": "10.5 µM (inactive)"},
      {"measurement": "EC50", "setting": "[1]", "value": "0.423 µM (active)"},
      {"measurement": "EC50", "setting": "[2]", "value": "4.45 µM (active)"},
      {"measurement": "EC50", "setting": "[14]", "value": "13.9 µM (active)"},
      {"measurement": "IC50", "setting": "[15]", "value": "12.8 µM (active)"},
      {"measurement": "IC50", "setting": "[16]", "value": "> 20 µM (inactive)"},
      {"measurement": "EC50", "setting": "[4]", "value": "< 0.12 µM (active)"},
      {"measurement": "EC50", "setting": "[5]", "value": "1.05 µM (active)"},
      {"measurement": "EC50", "setting": "[17]", "value": "10.4 µM (active)"}
    ]}
  ]
}
